Reference: paper PMC3038857, “Using Nuclear Receptor Activity to Stratify Hepatocarcinogens” (PLoS ONE, 2011)

Tests used:
[1] = target: T1, ESRRG (estrogen-related receptor gamma) (Homo sapiens, UniProt P62508); assay: ATG_ERRg_TRANS: Factorial reporter gene assay (HepG2); format: cell-based; design: scale not given here; settings: HepG2; scale not given, looks like -log10 of molar active concentration; 0 = no activity
T1 construct: expressed in transfected cells; host or cells: HepG2
T1 sequence (P62508 1-458): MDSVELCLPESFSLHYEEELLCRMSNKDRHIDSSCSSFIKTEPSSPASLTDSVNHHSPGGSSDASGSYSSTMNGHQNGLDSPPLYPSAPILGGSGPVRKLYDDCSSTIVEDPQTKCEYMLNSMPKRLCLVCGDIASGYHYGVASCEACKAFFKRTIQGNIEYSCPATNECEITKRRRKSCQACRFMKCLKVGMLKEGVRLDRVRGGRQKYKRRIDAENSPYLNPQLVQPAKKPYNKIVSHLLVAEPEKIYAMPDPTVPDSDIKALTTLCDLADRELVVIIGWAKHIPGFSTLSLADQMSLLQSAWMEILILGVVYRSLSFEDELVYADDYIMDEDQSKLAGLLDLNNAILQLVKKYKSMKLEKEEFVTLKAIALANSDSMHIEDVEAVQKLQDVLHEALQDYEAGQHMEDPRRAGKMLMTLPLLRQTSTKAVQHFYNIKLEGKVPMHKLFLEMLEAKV
Protocol: (§1) A multiple reporter transcription unit (MRTU) library consisting of 48 transcription factor binding sites was transfected into the HepG2 human liver hepatoma cell line. In addition to the cis-acting reporter genes (CIS), a modification of the approach was used to generate a trans-system (TRANS) with a mammalian one-hybrid assay consisting of an additional 25 MRTU library reporting the activity of nuclear receptor super-family members. […] These assays were performed by Attagene Inc. (Morrisville NC) under contract to EPA.
(§2) In addition to the cis-acting reporter genes (CIS), a modification of the approach was used to generate a trans-system (TRANS) with a mammalian one-hybrid assay consisting of an additional 25 MRTU library reporting the activity of nuclear receptor super-family members. […] Chemicals were then tested in the CIS and TRANS assays at seven concentrations starting at the MTC and followed by three-fold serial dilutions. These assays were performed by Attagene Inc. (Morrisville NC) under contract to EPA. Detailed description of the methods, data and analysis methods for this dataset will be presented in a separate publication.

CAR (NR1I3) [2] = target: T2, CAR (NR1I3) (Homo sapiens, UniProt Q14994); assay: ATG_CAR_TRANS: Factorial reporter gene assay (HepG2); format: cell-based; design: endogenous in cells; host or cells: HepG2; settings: HepG2; scale not given, looks like -log10 of molar active concentration; 0 = no activity
T2 sequence (Q14994 1-352): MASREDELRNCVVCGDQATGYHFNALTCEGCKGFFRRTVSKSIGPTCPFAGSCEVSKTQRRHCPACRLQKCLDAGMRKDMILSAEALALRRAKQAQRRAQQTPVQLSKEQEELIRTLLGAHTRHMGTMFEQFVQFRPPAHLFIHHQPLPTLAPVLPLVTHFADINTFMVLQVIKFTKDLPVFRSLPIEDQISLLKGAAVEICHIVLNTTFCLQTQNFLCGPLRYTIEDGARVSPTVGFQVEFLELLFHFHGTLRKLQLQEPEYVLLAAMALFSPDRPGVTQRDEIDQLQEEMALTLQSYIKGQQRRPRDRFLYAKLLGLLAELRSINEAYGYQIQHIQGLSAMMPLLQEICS
Protocol: as §1, §2

CAR (NR1I3) [3] = target: T2, CAR (NR1I3); assay: NVS_NR_hCAR: Human CAR CITCO (cell-free HTS); format: binding; settings: scale not given, looks like -log10 of molar active concentration, 0 = no activity
Description: (§3) These are a collection of biochemical assays measuring binding constants and enzyme inhibition values. Chemicals were initially screened at a single concentration in duplicate wells at a concentration of 10 [drawing 63] M for cytochrome P-450 assays and 25 [drawing 64] M for all others. […] These assays were run by Caliper Life Sciences (Hanover, MD) under contract to EPA. Short assay descriptions are available at: http://www.caliperls.com/products/contract-research/in-vitro/.
(§4) Cell-free HTS Assays: A collection of biochemical assays measuring binding constants and enzyme inhibition values. […] These assays were run by Caliper Life Sciences (Hanover, MD) under contract to EPA. Short assay descriptions are available at http://www.caliperls.com/products/contract-research/in-vitro/. Values for all endpoints were imported into GeneData Screener (Basel, Switzerland) and normalised to solvent controls from the same plate as the tested compounds and expressed as percent of neutral control. Concentration-response curves were fit in GeneData Screener (Basel, Switzerland) Condeseo module using the Hill equation and AC50 values were determined. […] Detailed description of the methods, data and analysis methods for this dataset are described in a separate publication.

[4] = target: T3, ESRRA (estrogen-related receptor alpha) (Homo sapiens, UniProt P11474); assay: ATG_ERRa_TRANS: Factorial reporter gene assay (HepG2); format: cell-based; settings: scale not given, looks like -log10 of molar active concentration, 0 = no activity
T3 construct: expressed in transfected cells; host or cells: HepG2
T3 sequence (P11474 1-423): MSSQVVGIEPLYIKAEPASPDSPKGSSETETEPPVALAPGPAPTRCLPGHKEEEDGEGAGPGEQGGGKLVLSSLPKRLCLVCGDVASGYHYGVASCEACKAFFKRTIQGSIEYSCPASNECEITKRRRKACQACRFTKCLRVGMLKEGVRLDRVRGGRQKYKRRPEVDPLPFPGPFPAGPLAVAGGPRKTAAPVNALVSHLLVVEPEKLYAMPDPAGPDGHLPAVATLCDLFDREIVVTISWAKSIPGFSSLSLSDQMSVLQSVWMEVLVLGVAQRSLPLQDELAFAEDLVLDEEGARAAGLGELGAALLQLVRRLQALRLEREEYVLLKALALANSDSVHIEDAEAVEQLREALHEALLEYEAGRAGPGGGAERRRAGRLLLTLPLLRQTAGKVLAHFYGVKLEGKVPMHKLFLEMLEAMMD
Protocol: as §1, §2

CAR (NR1I3) [5] = target: T2, CAR (NR1I3); assay: NVS_NR_hCAR_Agonist: Human CAR CITCO Agonist (cell-free HTS); format: biochemical; settings: scale not given, looks like -log10 of molar active concentration, 0 = no activity
Description: as §3, §4

FXR (NR1H4) = target: T4, FXR (NR1H4) (Homo sapiens, UniProt Q96RI1); assay: NVS_NR_hFXR: Human FXR CDCA (cell-free HTS); format: binding; settings: scale not given, looks like -log10 of molar active concentration, 0 = no activity
T4 sequence (Q96RI1 1-486): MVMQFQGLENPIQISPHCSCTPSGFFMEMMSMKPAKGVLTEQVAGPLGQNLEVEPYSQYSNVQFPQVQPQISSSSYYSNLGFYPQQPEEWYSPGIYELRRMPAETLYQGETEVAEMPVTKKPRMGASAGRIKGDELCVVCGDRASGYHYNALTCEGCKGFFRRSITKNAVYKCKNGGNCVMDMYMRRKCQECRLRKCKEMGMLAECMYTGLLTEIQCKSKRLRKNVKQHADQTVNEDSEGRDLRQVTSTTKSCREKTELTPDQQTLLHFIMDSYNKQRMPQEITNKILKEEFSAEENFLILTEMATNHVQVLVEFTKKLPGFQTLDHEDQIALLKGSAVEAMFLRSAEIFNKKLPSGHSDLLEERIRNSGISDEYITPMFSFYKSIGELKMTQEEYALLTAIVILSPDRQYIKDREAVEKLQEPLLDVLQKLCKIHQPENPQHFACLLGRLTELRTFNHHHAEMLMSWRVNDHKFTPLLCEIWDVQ
Description: as §3, §4

Mouse Liver = settings: mouse chronic study, liver, any lesion; coded 6 / Inf / 0, code not explained here; ref ToxRefDB; cited from earlier work

Structure (SMILES) | ATG_ERRg_TRANS [1] | ATG_CAR_TRANS (CAR (NR1I3) [2]) | NVS_NR_hCAR (CAR (NR1I3) [3]) | ATG_ERRa_TRANS [4] | NVS_NR_hCAR_Agonist (CAR (NR1I3) [5]) | NVS_NR_hFXR (FXR (NR1H4)) | CHR_Mouse_Liver_1_AnyLesion (Mouse Liver)
CCCCOCN(C(=O)CCl)c1c(CC)cccc1CC [r46] | 0 | 0 | 0 | 0 | 0 | 0 | 
COC(=O)c1ccccc1CS(=O)(=O)NC(=O)Nc1nc(OC)cc(OC)n1 [r33] | 0 | 0 | 0 | 0 | 0 | 0 | 
CNC(=O)Oc1cccc2ccccc12 [r52] |  | 0 | 0 |  | 0 | 0 | 6
Cc1c(COC(=O)C2C(/C=C(\Cl)C(F)(F)F)C2(C)C)cccc1-c1ccccc1 (stereo not drawn) [r39] |  | 0 | 0 |  | 0 | 0 | 6
CCC(C)n1c(=O)[nH]c(C)c(Br)c1=O (stereo not drawn) [r43] | 0 | 0 | 0 | 0 | 0 | 0 | 6
CCOC(=O)C(Cl)Cc1cc(-n2nc(C)n(C(F)F)c2=O)c(F)cc1Cl (stereo not drawn) [r54] |  | 0 | 0 |  | 0 | 0 | 6
COc1ccc(-c2ccccc2)cc1NNC(=O)OC(C)C [r38] | 4.469 | 0 | 0 | 0 | 0 | 0 | 6
N#Cc1cc(Br)c(O)c(Br)c1 [r44] | 0 | 0 | 0 | 0 | 0 | 0 | 6
CC1=C(C(=O)Nc2ccccc2)SCCO1 [r53] | 0 |  |  | 0 |  | 0 | 6
CC(C)OC(=O)Nc1cccc(Cl)c1 [r59] | 0 |  |  | 0 |  | 0 | 6
N#Cc1c(Cl)c(Cl)c(Cl)c(C#N)c1Cl [r58] |  | 0 | 0 |  | 0 | 0 | 
OB(O)O [r41] | 0 | 0 | 0 | 0 | 0 | 0 | 
